Marks after values point to notes of the source that are not given here.
What was measured:
[1] = Solubility of SCAI-Form and API at pH 1 and pH 2; assay type: physicochemical; conditions: for Dissolution concentration at pH 1: stirred 15 minutes at 5 mg/mL, diluted 10 times with DW, measured value x 10; for Dissolution concentration at pH 1 / Dissolution concentration at pH 2: filtered; for Dissolution concentration at pH 2: stirred 15 minutes at 1 mg/mL
Protocol: Method for measuring solubility at pH 1: Stirred for 15 minutes at a concentration of 5 mg/mL, and then filtered, diluted 10 times with DW, and analyzed. (The value calculated as [measured value×10] is described in the results)
Method for measuring solubility at pH 2: Stirred for 15 minutes at a concentration of 1 mg/mL, and then filtered, and analyzed.

grade 3/4 CNV lesions [2] = experiment: Laser-induced CNV monkey model, fundus fluorescein angiography (FFA): leakage area and spot number; assay type: in vivo, rhesus monkeys; conditions: n = 6 eyes
Source text: (§1) In this experiment, neovascularization was induced by damaging the choroid of both eyes using a laser in a monkey animal model, and then treated with drugs, and the efficacy is compared and evaluated by performing fundus fluorescein angiography (FFA) and optical coherence tomography (OCT) and measuring the neovascular area and spot number in the damaged area and the retinal lesion thickness.
(§2) Experimental CNV in monkey eyes was induced using a laser photocoagulation system (Vitra 532 nm, Quantel Medical, France).
(§3) Laser parameters: laser wavelength of 532 nm; spot size of 50 μm; energy of 600-800 mW; exposure time of 0.1 s.
(§4) A total of eight rhesus monkeys were used to induce CNV. The animals were anesthetized by intramuscular injection of ketamine hydrochloride (20 mg/kg) and dexmedetomidine hydrochloride (0.03 mg/kg), and then both eyes of each monkey were burned at 8-9 points around the macula, approximately one disc diameter from the macula. Care was taken not to aim the laser at the macula. The force used depended on the morphology of the subretinal bleb indicating a perforation of the Bruch's membrane. If no bled formed, higher energy was used at the next point. Color fundus photography (Retinal Camera TRC-50DX, Topcon Healthcare, Japan) was performed immediately after laser photocoagulation to observe the laser dots. Fundus fluorescein angiography (FFA) examination was performed 12 days after laser induction. Modeling was assessed as successful if there was one or more fluorescence leakage point of grade III and/or grade IV. Animals were enrolled in treatment and randomly divided into two groups based on the total leakage area of grade III and IV laser spots (Tables 10 and 11). The monkeys that were not included were returned to the PRIMED Animal Care Department.
(§5) Frequency: a total of 4 times, 1 time before laser photocoagulation, 1 time before administration (−Day 2), 1 time on Day 14 and 1 time on Day 28 after the first administration.
FFA image acquisition protocol: The FP images were taken, and then FFA was performed. After intravenous infusion of 10% sodium fluorescein (Alcon Laboratories, USA) at a dose of 0.075 mL/kg, rapid posterior polar photographs of the right eye were taken. The left eye was then used to monitor leakage of fluorescein related to the CNV lesion at serial time points (1, 5, and 10 minutes).
To quantify the area of CNV leakage, the total area of hyperfluorescence per eye was measured in late FFA images using Image J software (version 1.52a, Wayne Rasband National Institutes of Health, USA). Images from the later stage (10 min) were also used to calculate the amount and grade of CNV spots (Table 12).
(§6) Data analysis consisted of total area of fluorescein leakage points at one of the registered photocoagulation points, volume of fluorescein leakage points, and retinal thickness. Animal observations, photography, fundus and slit-lamp examinations were recorded and summarized in a report. The mean and standard deviation of the percent change in the total area of fluorescein leakage spots and the percent change in retinal thickness were calculated. Microsoft Office Excel 2013 and SPSS Statistics 13.0 were used for data processing and statistical analysis.

grade 3/4 CNV lesions [3] = experiment: Laser-induced CNV monkey model, optical coherence tomography (OCT): retinal thickness; assay type: in vivo, rhesus monkeys; conditions: n = 6 eyes; for Percent change of retinal thickness (Mean±SD): relative to (baseline − before laser induction), Example 15 (0.08%) eye drops
Source text: as §1, §2, §3, §4
Optical coherence tomography (OCT): Heidelberg Spectralis OCT plus.
as §5
OCT image acquisition protocol: FP and FFA images were taken, and then OCT scans were performed. Efforts were made to maintain uniformly illuminated and well-focused fundus images and high-quality OCT. Once the focus was aligned on the central macula by observation of the monitor screen, the monkey's eyes were identified by applying a high-speed macular scan process. Retinal thickness was automatically measured using software embedded in the Heidelberg OCT by measuring the distance between the internal border membrane and Bruch's membrane. Two membrane lines were found manually. The location with the maximum thickness around the grade III or IV point was selected for measurements. Heidelberg OCT unique has technical characteristics that ensure longitudinal measurements of retinal thickness at the same location.
as §6

[4] = Baseline (after induction, before treatment), group later given Example 15 eye drops
[5] = Day 14, Example 15 (0.08%) eye drops 4 times/day

| Dissolution concentration at pH 1 [1] [mg/mL] | Dissolution concentration at pH 2 [1] [mg/mL] | Solubility of SCAI-Form relative to API ([1]; from Table 6, pH 1 and pH 2) | Dissolution concentration at pH 1 ([1]; listed as SCAI-Form) [mg/mL] | Dissolution concentration at pH 2 ([1]; listed as SCAI-Form) [mg/mL] | Compound | Leakage area of grade 3/4 CNV lesions (Mean±SD) (grade 3/4 CNV lesions [2]; [4]) [mm^2] | Amount of grade 3/4 leakage spots (grade 3/4 CNV lesions [2]; [5]) | Leakage area of grade 3/4 CNV lesions (Mean±SD) (grade 3/4 CNV lesions [2]; Day 14, Example 15 (0.08%) ophthalmic solution, 1 drop 50 μL, 4 times/day topical) [mm^2] | Percent change of leakage area (Mean±SD) (grade 3/4 CNV lesions [2]; Day 14 vs baseline, Example 15 (0.08%) eye drops 4 times/day) [%] | Amount of grade 3/4 leakage spots (grade 3/4 CNV lesions [2]; Day 28, Example 15 (0.08%) eye drops 4 times/day) | Leakage area of grade 3/4 CNV lesions (Mean±SD) (grade 3/4 CNV lesions [2]; Day 28, Example 15 (0.08%) ophthalmic solution, 1 drop 50 μL, 4 times/day topical, p < 0.05 vs baseline) | Percent change of leakage area (Mean±SD) (grade 3/4 CNV lesions [2]; Day 28 vs baseline, Example 15 (0.08%) eye drops 4 times/day, p < 0.05 vs vehicle) [%] | Amount of grade 3/4 leakage spots (grade 3/4 CNV lesions [2]; baseline, group later given Example 15 eye drops) | Average retinal thickness of grade 3/4 CNV lesions (Mean±SD) (grade 3/4 CNV lesions [3]; [4]) [μm] | Average retinal thickness of grade 3/4 CNV lesions (Mean±SD) (grade 3/4 CNV lesions [3]; [5]) [μm] | Percent change of retinal thickness (Mean±SD) (grade 3/4 CNV lesions [3]; Day 14) [%] | Average retinal thickness of grade 3/4 CNV lesions (Mean±SD) (grade 3/4 CNV lesions [3]; Day 28, Example 15 (0.08%) eye drops 4 times/day, p < 0.01 vs baseline) [μm] | Percent change of retinal thickness (Mean±SD) (grade 3/4 CNV lesions [3]; Day 28, p < 0.01 vs vehicle) [%] |
| --- | --- | --- | --- | --- | --- | --- | --- | --- | --- | --- | --- | --- | --- | --- | --- | --- | --- | --- |
| 2.661 | 0.073 | – | – | – | CNC(=O)c1ccccc1Sc1ccc2c(/C=C/c3ccccn3)n[nH]c2c1 [API, axitinib] | – | – | – | – | – | – | – | – | – | – | – | – | – |
| – | – | about twice | 4.363 | 0.171 | CNC(=O)c1ccccc1Sc1ccc2c(/C=C/c3ccccn3)n[nH]c2c1 [SCAI-005, axitinib] | 9.01 ± 2.25 | 47* | 9.65 ± 4.85 | 4.5 ± 39.1 | 43* | 6.46 ± 3.30* mm^2 | −30.2 ± 28.9 | 53 | 430 ± 45 | 406 ± 68 | −26.0 ± 26.3 | 358 ± 40 | −61.4 ± 16.0 |

— patent publication US20260108505A1, “EYE DROP COMPOSITION COMPRISING NOVEL MOLECULAR ASSOCIATION OF AXITINIB AND METHOD FOR PREPARING THE SAME” (SCAI THERAPEUTICS CO., LTD., priority 2024, published 2026)
